Test results as given in PMC9504985, “Identification of Novel Aryl Carboxamide Derivatives as Death-Associated Protein Kinase 1 (DAPK1) Inhibitors with Anti-Proliferative Activities: Design, Synthesis, In Vitro, and In Silico Biological Studies” (Pharmaceuticals, 2022).

Molecular target: T1, Death-associated protein kinase 1 (DAPK1) (Homo sapiens, UniProt P53355)
Assay: 10-dose kinase assay (Reaction Biology HotSpot)
Format: biochemical
Conditions: not given

T1 sequence (P53355 whole entry): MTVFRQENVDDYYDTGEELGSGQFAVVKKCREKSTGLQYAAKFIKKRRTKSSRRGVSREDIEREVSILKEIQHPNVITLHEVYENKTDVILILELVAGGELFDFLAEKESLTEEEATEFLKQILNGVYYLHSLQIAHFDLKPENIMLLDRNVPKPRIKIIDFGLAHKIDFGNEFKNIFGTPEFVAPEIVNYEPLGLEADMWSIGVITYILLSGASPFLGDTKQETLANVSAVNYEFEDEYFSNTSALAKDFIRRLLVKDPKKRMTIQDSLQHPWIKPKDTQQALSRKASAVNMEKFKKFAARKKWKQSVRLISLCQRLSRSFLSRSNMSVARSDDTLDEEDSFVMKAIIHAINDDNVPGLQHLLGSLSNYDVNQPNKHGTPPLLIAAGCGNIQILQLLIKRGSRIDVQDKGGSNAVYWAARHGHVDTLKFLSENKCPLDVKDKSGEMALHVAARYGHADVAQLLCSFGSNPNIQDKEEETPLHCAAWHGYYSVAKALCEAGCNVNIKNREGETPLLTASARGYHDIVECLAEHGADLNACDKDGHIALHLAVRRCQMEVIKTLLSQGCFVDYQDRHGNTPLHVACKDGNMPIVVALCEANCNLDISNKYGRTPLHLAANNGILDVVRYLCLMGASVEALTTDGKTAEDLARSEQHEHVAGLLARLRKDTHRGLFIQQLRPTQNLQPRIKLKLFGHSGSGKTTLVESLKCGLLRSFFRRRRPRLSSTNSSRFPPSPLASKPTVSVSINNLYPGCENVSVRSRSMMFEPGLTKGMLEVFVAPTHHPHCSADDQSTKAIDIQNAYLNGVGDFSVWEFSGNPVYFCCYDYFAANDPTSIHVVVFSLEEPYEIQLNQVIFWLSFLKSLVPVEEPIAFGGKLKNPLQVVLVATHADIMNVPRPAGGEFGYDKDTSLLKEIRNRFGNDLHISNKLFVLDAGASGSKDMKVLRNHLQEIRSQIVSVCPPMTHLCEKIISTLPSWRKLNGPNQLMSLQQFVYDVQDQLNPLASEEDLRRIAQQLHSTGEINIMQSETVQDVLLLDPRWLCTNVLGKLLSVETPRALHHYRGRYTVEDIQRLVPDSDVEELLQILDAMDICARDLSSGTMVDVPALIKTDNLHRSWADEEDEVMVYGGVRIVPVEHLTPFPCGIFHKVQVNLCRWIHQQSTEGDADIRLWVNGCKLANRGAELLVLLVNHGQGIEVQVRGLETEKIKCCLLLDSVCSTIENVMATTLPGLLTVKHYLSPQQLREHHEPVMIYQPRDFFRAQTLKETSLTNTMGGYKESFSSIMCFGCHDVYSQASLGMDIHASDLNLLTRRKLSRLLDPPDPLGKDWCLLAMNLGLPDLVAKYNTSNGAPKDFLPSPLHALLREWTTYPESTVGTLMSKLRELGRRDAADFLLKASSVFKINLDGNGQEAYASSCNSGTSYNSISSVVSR

**Q.** With `O=C(Nc1ccc(Oc2ccc(F)cc2)c(Cl)c1)c1ccccn1` [4h, N-(3-chloro-4-(4-fluorophenoxy)phenyl) picolinamide] as the compound, how does the IC50 read?
**A.** 6.81 µM

**Q.** How did the IC50 turn out when `O=C(Nc1ccc(Oc2ccc(F)cc2)c(Cl)c1)c1cccnc1` [4j, N-(3-chloro-4-(4-fluorophenoxy)phenyl) nicotinamide] was run?
**A.** 1.7 µM

**Q.** `O=C(Nc1ccc(Oc2ccc(F)cc2)c(Cl)c1)c1ccncc1` [4k, N-(3-chloro-4-(4-fluorophenoxy)phenyl) isonicotinamide] was tested. Which IC50 did it give?
**A.** 7.26 µM

**Q.** For `O=C(Nc1ccc(Oc2cccc(Cl)c2)c(Cl)c1)c1ccncc1` [4q, N-(3-chloro-4-(3-chlorophenoxy)phenyl) isonicotinamide], which IC50 is on record?
**A.** 1.09 µM

Molecular target: T1, Death-associated protein kinase 1 (DAPK1)
Assay: single-dose kinase assay, % inhibition at […]
Format: biochemical
Conditions: read-out: % Inhibition against DAPK1 ^a

**Q.** With `O=C(Nc1ccc(Oc2cccc(Cl)c2)c(Cl)c1)c1ccccn1` [4m, N-(3-chloro-4-(3-chlorophenoxy)phenyl) picolinamide] as the compound, how does the inhibition at 10 µM read?
**A.** 61.7%

**Q.** `O=C(Nc1ccc(Oc2cccc(Cl)c2)c(Cl)c1)c1cccnn1` [4n, N-(3-chloro-4-(3-chlorophenoxy)phenyl) pyridazine-3-carboxamide] was tested. Which inhibition at 10 µM did it give?
**A.** 61.5%

**Q.** How did the inhibition at 10 µM turn out when `O=C(Nc1ccc(Oc2cccc(Cl)c2)c(Cl)c1)c1cccnc1` [4p, N-(3-chloro-4-(3-chlorophenoxy)phenyl) nicotinamide] was run?
**A.** 61.5%

**Q.** For `O=C(Nc1ccc(Oc2cccc(Cl)c2)c(Cl)c1)c1ccnnc1` [4r, N-(3-chloro-4-(3-chlorophenoxy)phenyl) pyridazine-4-carboxamide], which inhibition at 10 µM is on record?
**A.** 60%
